Values of other authors in patent publication US20220195167A1, “COMPOSITIONS COMPRISING STYRENATED BLOCK COPOLYMER, NON-POLAR OIL AND POLAR OIL” (L'OREAL, priority 2020, published 2022).

| SMILES | log P |
| --- | --- |
| CC(C)CCCCCCCCCCCCCCC(=O)OC(C)C [Isopropyl isostearate] | 9.37 |
| CC(C)CCCCCCCOC(=O)C(C)(C)C [Isodecyl neopentanoate] | 6.00 |
| CCCCCCCCCCCCCCCC(=O)OC(C)C [Isopropyl palmitate] | 8.49 |

Second part, the molecule after the results:

| log P | SMILES |
| --- | --- |
| 9.33 | CCCCCCCC(=O)OCC(COC(=O)CCCCCCC)OC(=O)CCCCCCC [Tricaprylin] |
| 10.25 | CC(C)CCCCCCCCCCCCCCCOC(=O)C(C)(C)C [Isostearyl neopentanoate] |
